Assay results reported in patent publication US5314999A, “Derivatives of basic polyene macrolides and their preparation” (Laboratoires Mayoly-Spindler, priority 1989, dated 1994).
Values after ≈ are worked out from the molar mass of the structure shown. Read-outs that look alike come from different tables or passages of the source.

What was measured:
Aspergillus flavus = assay: Diffusion method in agar-agar medium (Sabouraud agar-agar); type: cell-based; settings: Sabouraud agar-agar, disc diameter 1 cm, 0.1 ml
Protocol: (§1) A.2 : Study of the antibiotic efficiency of amphotericine B derivatives in agar-agar medium against Aspergillus
(§2) The antibiotic activity was tested by the diffusion method in agar-agar medium (Sabouraud agar-agar).
(§3) The efficiency of each molecule was determined by the size of the growth-inhibiting zone around a WHATMAN 3M paper disc impregnated with the antibiotic substance of a given concentration.
(§4) A suspension of Aspergillus spores in a broth was prepared, 0.2 ml of this suspension was used to inoculate at its surface an agar-agar medium which was solidified in such a manner that a homogeneous growth layer was obtained. After spreading, the WHATMAN 3M paper discs (diameter: 1 cm) were placed on the surface of the agar-agar, and then impregnated with 0.1 ml of the antibiotic substance at different concentrations.

Aspergillus fumigatus = assay: as above; type: cell-based; settings: Aspergillus fumigatus, Sabouraud agar-agar, disc diameter 1 cm, 0.1 ml; read-out: concentration giving a growth inhibition of 1 cm around a disc in solid medium
Protocol: as §1, §2, §3, §4

[1] = Toxicity on nucleated cells, X 63 mice lymphoma B; type: cell-based; settings: mouse, x 63 lymphoma cells, 1 hour 30, trypan blue, read-out: LD 50 (concentration leading to a mortality of 50%)
[2] = Toxicity on red corpuscles (lysis), mice; type: cell-based; settings: mouse, red blood cells, 37° C., 1 hour 30, read-out: LD 50 (dose which leads to lysis in 50% of the erythrocytes)
Protocol: (§5) B.1: Study of the toxicity on red corpuscles
(§6) All the solutions of the AmB derivatives according to the invention were prepared immediately before use by diluting 4 mg of substance in 100 μl of 5% glucose solution, and then, after 15 minutes protected from light, 100 μl of sterile distilled water are added, and the mixture is made up to stock solutions of 4 mg/ml with a 5% glucose solution. For comparative study of the effects of AmB, 4 mg of FUNGIZONE are diluted with 1 ml of 5% glucose.
(§7) The cells are prepared by placing 1 ml of a peripheral blood sample into a tube together with Ficollhypaque to remove the lymphocytes, and then centrifuging the mixture at 2000 rpm for 20 minutes. The remaining red corpuscles are recovered, washed once with 0.9% NaCl and then twice with 150 Mm KCl, 0.5 Mm tris-HCl, pH 7.4.
(§8) A 1.25% suspension is then prepared with 150 mM KCl solution, 0.5 mM tris-HCl, pH 7.4, and 150 μl thereof are distributed in wells along with 50 μl of each of the dilutions of the derivatives, plus a control well (5% glucose solution).
(§9) The cells are then incubated at 37° C. in a steam cabinet for 1 hour 30.
(§10) To evaluate the cell lysis, haemoglobin is essayed by removing 100 μl of the supernatant in each well and diluting the sample with 1 ml of distilled water.
(§11) The haemoglobin concentration is calculated by measuring the optical density at 540 nm and taking into account the absorption of the derivatives of amphotericine B.
(§12) LD 50 is the dose which leads to lysis in 50% of the erythrocytes (a control of 100% lysis is obtained with distilled water, and reference lysis of 0% is obtained with the 5% glucose solution).

DAUDI (human lymphoma B) = assay: Toxicity on nucleated cells, DAUDI human lymphoma B; type: cell-based; settings: 1 hour 30, trypan blue, 90 min, read-out: LD 50 (concentration leading to a mortality of 50%)
red corpuscles = assay: Toxicity on red corpuscles (lysis), human; type: cell-based; settings: 37° C., 1 hour 30, 90 min, 90 min, read-out: LD 50 (dose which leads to lysis in 50% of the erythrocytes)
Protocol: as §5, §6, §7, §8, §9, §10, §11, §12

[3] = Toxicity on nucleated cells, mice thymocytes; type: cell-based; settings: mouse, thymocytes, 1 hour 30, trypan blue, read-out: LD 50 (concentration leading to a mortality of 50%)
Saccharomyces cerevisiae = assay: Growth inhibition in liquid medium (Sabouraud broth); type: cell-based; settings: Saccharomyces cerevisiae, 18 h, Sabouraud broth, 28° C., 18 hours; read-out: IC 50 (growth-inhibiting concentration of 50%)
Protocol: (§13) A.1 : Study of the antibiotic efficiency of AmB derivatives in liquid medium against different yeasts
(§14) The antibiotic efficiency was tested by the growth inhibition method in liquid medium (Sabouraud broth) in the presence of different concentrations of the derivatives studied.
(§15) A yeast suspension was cultivated in a broth in such a manner that about 1×10^2 cell/ml were obtained.
(§16) The tubes containing the different concentrations of antifungal substance were inoculated with the same amount of yeast cells, and were then incubated at 28° C. for 18 hours with stirring. For each concentration of antifungal substance, two identical tubes were prepared.
(§17) The inhibition of fungal growth corresponding to the different concentrations was evaluated for each molecule by spectrophotometry at 620 nm and expressed in percent with respect to a reference solution without antifungal substance.

Candida albicans = assay: as above; type: cell-based; settings: Candida albicans, 18 h, Sabouraud broth, 28° C., 18 hours; read-out: IC 50 (growth-inhibiting concentration of 50%)
Protocol: as §13, §14, §15, §16, §17

Pytirosporum orbiculare = assay: as above; type: cell-based; settings: Sabouraud broth, 28° C., 18 hours; read-out: IC 50 (growth-inhibiting concentration of 50%)
Protocol: as §13, §14, §15, §16, §17

Candida albicans B 2630 = assay: as above; type: cell-based; settings: B2630, Sabouraud broth, 28° C., 18 hours, read-out: IC 50 (growth-inhibiting concentration of 50%)
Protocol: as §13, §14, §15, §16, §17

Cryptoccocus neoformans = assay: as above; type: cell-based; settings: 18 h, Sabouraud broth, 28° C., 18 hours; read-out: IC 50 (growth-inhibiting concentration of 50%)
Protocol: as §13, §14, §15, §16, §17

[4] = Toxicity on nucleated cells, mice T lymph gland cells; type: cell-based; settings: mouse, 1 hour 30, trypan blue, read-out: LD 50 (concentration leading to a mortality of 50%)
Protocol: (§18) B.2: Study of the toxicity on nucleated cells
(§19) The solutions of the amphotericine B derivatives are prepared similarly to those mentioned in paragraph B.1.
(§20) The cells are prepared by placing 20 ml of blood diluted to 1/2 with 0.9% NaCl into a tube together with 10 ml of Ficoll-hypaque, and the mixture is centrifuged at 2000 rpm for 30 minutes. The cell nuclei are recovered and washed twice with PBS buffer containing 5% of foetal calf serum.
(§21) The cells are prepared by suspending 1.14×10^6 cells/ml in RPMI 1640 containing 2.5% of foetal calf serum and by filling each well with 150 μl. 50 μl of each dilution of the derivatives are added and also one control (5% glucose solution).
(§22) The cells are then incubated in a steam cabinet at a CO2 concentration of 5% for 1 hour 30 at 37° C. or at ambient temperature.
(§23) To evaluate the toxicity of the derivatives, a cell count in the presence of trypan blue is made, and the LD 50 (concentration of the derivative leading to a mortality of 50%) is calculated with respect to the control (5% glucose solution) for each concentration of each derivative.

[5] = Toxicity on nucleated cells, mice B lymph gland cells; type: cell-based; settings: mouse, 1 hour 30, trypan blue, read-out: LD 50 (concentration leading to a mortality of 50%)
Protocol: as §18, §19, §20, §21, §22, §23

[6] = Toxicity on nucleated cells, human thymocytes; type: cell-based; settings: 1 hour 30, trypan blue, read-out: LD 50 (concentration leading to a mortality of 50%)
Protocol: as §18, §19, §20, §21, §22, §23

[7] = Toxicity on nucleated cells, human bone marrow; type: cell-based; settings: 1 hour 30, trypan blue, read-out: LD 50 (concentration leading to a mortality of 50%)
Protocol: as §18, §19, §20, §21, §22, §23

PBL = assay: Toxicity on nucleated cells, human PBL; type: cell-based; settings: 90 min
Protocol: as §18, §19, §20, §21, §22, §23

[8] = Solubility of the AmB derivatives; type: physicochemical; settings: 5% glucose solution, ambient temperature, up to saturation; read-out: solubility (soluble up to a concentration of)
Protocol: C.2. Solubility of the AmB derivatives according to the present invention
AmB or the derivatives obtained are dissolved at ambient temperature in a 5% glucose solution up to saturation.

| Structure (SMILES) | concentration giving a growth inhibition of 1 cm around a disc in solid medium (Aspergillus flavus) | IC (1 cm inhibition zone) (Aspergillus fumigatus) [µM] | CC50 at 1.5 h [1] [µM] | HC50 at 1.5 h [2] [µM] | CC50 (DAUDI (human lymphoma B)) [µM] | HC50 (red corpuscles) [µM] | CC50 at 1.5 h [3] [µM] | IC50 (Saccharomyces cerevisiae) [µM] | IC50 (Candida albicans) [µM] | IC50 (Pytirosporum orbiculare) [µM] | IC50 (Candida albicans B 2630) [µM] | IC50 (Cryptoccocus neoformans) [µM] | CC50 at 1.5 h [4] [µM] | CC50 at 1.5 h [5] [µM] | CC50 at 1.5 h [6] [µM] | CC50 at 1.5 h [7] [µM] | CC50 (PBL; human PBL, 1 hour 30, trypan blue, read-out: LD 50 (concentration leading to a mortality of 50%)) [µM] | CC50 (PBL; human PBLs, AmB 12 derivative, comparison of different catalysts (Table 4), listed as Oxalic acid NMG salt, read-out: LD 50 (the source's name)) [µM] | solubility [8] [mg/mL] |
| --- | --- | --- | --- | --- | --- | --- | --- | --- | --- | --- | --- | --- | --- | --- | --- | --- | --- | --- | --- |
| C[C@@H]1[C@H](O)[C@@H](C)/C=C/C=C/C=C/C=C/C=C/C=C/C=C/[C@H](O[C@@H]2O[C@H](C)[C@@H](O)[C@H](NCC3(O)O[C@H](C(N)=O)[C@@H](O)[C@@H]3O)[C@@H]2O)C[C@@H]2O[C@](O)(C[C@@H](O)C[C@@H](O)[C@H](O)CC[C@@H](O)C[C@@H](O)CC(=O)O[C@H]1C)C[C@H](O)[C@H]2C(=O)O (stereo partly drawn) [AmB 12 F, 1-amino-1-deoxy-D-arabinoglucuronamidyl-AmB] | 3 × 10^-4 molarity | 80 | > 1000 | 20 | > 1000 | 100 | 4 | 1.1 | 0.09 | 0.096 | 0.24 | 0.065 | 10 | 10 | > 300 | > 1000 | > 1000 | > 1000 |  |
| C[C@@H]1[C@H](O)[C@@H](C)/C=C/C=C/C=C/C=C/C=C/C=C/C=C/[C@H](O[C@@H]2O[C@H](C)[C@@H](O)[C@H](NCC3(O)O[C@H](C(N)=O)[C@@H](O)[C@@H]3O)[C@@H]2O)C[C@@H]2O[C@](O)(C[C@@H](O)C[C@@H](O)[C@H](O)CC[C@@H](O)C[C@@H](O)CC(=O)O[C@H]1C)C[C@H](O)[C@H]2C(=O)O (stereo partly drawn) [AmB 12, 1-amino-1-deoxy-D-arabinoglucuronamidyl-AmB] |  |  |  |  |  |  |  |  |  |  |  |  |  |  |  |  |  |  | 150 (≈ 136 mM) |
| C[C@@H]1[C@H](O)[C@@H](C)/C=C/C=C/C=C/C=C/C=C/C=C/C=C/[C@H](O[C@@H]2O[C@H](C)[C@@H](O)[C@H](NCC3(O)O[C@H](C(=O)O)[C@@H](O)[C@@H]3O)[C@@H]2O)C[C@@H]2O[C@](O)(C[C@@H](O)C[C@@H](O)[C@H](O)CC[C@@H](O)C[C@@H](O)CC(=O)O[C@H]1C)C[C@H](O)[C@H]2C(=O)O (stereo partly drawn) [AmB 17, 1-amino-1-deoxy-D-arabinoglucuronyl-AmB] |  |  |  |  |  |  |  |  |  |  |  |  |  |  |  |  |  |  | 20 (≈ 18.2 mM) |
